In PubChem BioAssay (NCI):
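48-hour exposure; five concentrations; linearly interpolated endpoints. The concentration for 50% growth inhibition is given as GI50. The concentration for full growth arrest is given as TGI.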

Assays:
Assay in all cases: growth of human tumour cells (NCI), 48 h
[1] = test system: EKVX NSCLC
[2] = test system: HT29 colon
[3] = test system: ACHN renal
[4] = test system: SNB-75 CNS
[5] = test system: K-562 leukemia
[6] = test system: UO-31 renal
[7] = test system: 786-0 renal
[8] = test system: SF-539 CNS
[9] = test system: SNB-78 CNS
[10] = test system: LXFL 529 NSCLC

SMILES	GI50 [1] [µM]	TGI [1] [µM]	GI50 [2] [µM]	TGI [2] [µM]	GI50 [3] [µM]	TGI [3] [µM]	GI50 [4] [µM]	TGI [4] [µM]	GI50 [5] [nM]	TGI [5] [µM]	GI50 [6] [µM]	TGI [6] [µM]	GI50 [7] [µM]	TGI [7] [µM]	GI50 [8] [µM]	TGI [8] [µM]	TGI [9] [µM]	TGI [10] [µM]
COC(=O)c1oc2c(C(=O)/C=C/c3ccc(OC)cc3)c(OCCN(C)C)ccc2c1C	6.4	19	3.72	9.83	5.9	19.5	9.94	22.2	2240	8.49	5.14	18.2	9.4	22.3	11.3	24.1	–	–
COc1cc(/C=N/N=C(\N)NO)c(Cl)cc1O	–	> 100	–	> 100	–	> 100	–	–	–	> 100	–	> 100	–	> 100	–	> 100	> 100	> 100
NC1=NN(c2ccccc2)C(=O)C1C(=O)C(=O)Nc1ccc(Cl)c(Cl)c1 (configuration not stated)	–	> 100	–	> 100	–	> 100	–	85	–	> 100	–	> 100	–	> 100	–	> 100	> 100	–
COC(=O)[C@@]12CC(C(C)C)[C@H]3CC(C(=O)C=C1OC)[C@H]32 (some centres not stated)	–	> 100	–	> 100	–	> 100	–	> 100	–	> 100	–	–	–	> 100	–	> 100	> 100	> 100
Clc1ccccc1-c1nnc2c(Cc3ccccc3)nc3ccccc3n12	12.7	> 100	8.71	> 100	39.4	> 100	3.78	40.3	5550	> 100	> 50	> 100	12.5	98.3	24.2	> 100	–	–
CC1(C)CCCC(C)(C2CCC3(C)C2C(O)CC2C4(C)CCC(O)C(C)(C)C4CCC23C)O1 (configuration not stated)	–	> 100	–	> 100	–	> 100	–	> 100	–	> 100	–	> 100	–	> 100	–	> 100	–	–
Cc1cc(=O)n(-c2cc3cccccc-3n2)[nH]1	–	96.7	–	35.6	–	50.3	–	31.7	–	15.5	–	48.3	–	18	–	59	–	16.9
CC(=O)N1N=C(c2ccc(Nc3nc(Nc4ccc(F)cc4)nc(Nc4ccc(F)cc4)n3)cc2)CC1c1ccc(N(C)C)cc1 (configuration not stated)	15.7	> 100	3.79	28.9	6.15	18.7	1.51	9.89	2690	7.31	5.94	35.8	5.09	23.3	12.8	41.2	–	–
